Test results as given in US20240415914A1, “Water Dispersible Cannabinoid Compositions” (priority 2021, published 2024).
Read-outs that look alike come from different tables or passages of the source.

How the values were obtained:
[1] = Stability of cannabinoid and Vitamin E components of Beverage 2 (AB Red) stored at 8° C. and 21-25° C., LCMSMS over 570 days
Protocol: The LCMSMS was calibrated for 0-50 ng/ml cannabinoids with the same resin material used in the preparation of the concentrates. At each time period, 100 μml of beverage was diluted with 10 ml of methanol and injected into the LCMSMS for analysis.

[2] = format: physicochemical; conditions: stored at room temperature (21-25° C.)
Protocol: At each time period, 0.05 g of powder was dissolved in 10 ml-15 of ethanol, diluted to fall within the analytical range, and injected into the LCMSMS for analysis.

## C=C(C)[C@@H]1CCC(C)=C[C@H]1c1c(O)cc(CCCCC)c(C(=O)O)c1O [CBDA, cannabidiolic acid]
[1]; 8° C., 0 days
  Stability of Cannabinoids in AB Red: 1.68 µg/mL
[1]; 8° C., 1 days
  Stability of Cannabinoids in AB Red: 1.69 µg/mL
[1]; 8° C., 2 days
  Stability of Cannabinoids in AB Red: 1.66 µg/mL
[1]; 8° C., 3 days
  Stability of Cannabinoids in AB Red: 1.64 µg/mL
[1]; 8° C., 5 days
  Stability of Cannabinoids in AB Red: 1.67 µg/mL
[1]; 8° C., 8 days
  Stability of Cannabinoids in AB Red: 1.68 µg/mL
[1]; 8° C., 9 days
  Stability of Cannabinoids in AB Red: 1.65 µg/mL
[1]; 8° C., 10 days
  Stability of Cannabinoids in AB Red: 1.67 µg/mL
[1]; 8° C., 11 days
  Stability of Cannabinoids in AB Red: 1.65 µg/mL
[1]; 8° C., 12 days
  Stability of Cannabinoids in AB Red: 1.68 µg/mL
[1]; 8° C., 15 days
  Stability of Cannabinoids in AB Red: 1.67 µg/mL
[1]; 8° C., 16 days
  Stability of Cannabinoids in AB Red: 1.69 µg/mL
[1]; 8° C., 17 days
  Stability of Cannabinoids in AB Red: 1.64 µg/mL
[1]; 8° C., 18 days
  Stability of Cannabinoids in AB Red: 1.65 µg/mL
[1]; 8° C., 19 days
  Stability of Cannabinoids in AB Red: 1.68 µg/mL
[1]; 8° C., 22 days
  Stability of Cannabinoids in AB Red: 1.70 µg/mL
[1]; 8° C., 23 days
  Stability of Cannabinoids in AB Red: 1.63 µg/mL
[1]; 8° C., 24 days
  Stability of Cannabinoids in AB Red: 1.70 µg/mL
[1]; 8° C., 25 days
  Stability of Cannabinoids in AB Red: 1.63 µg/mL
[1]; 8° C., 26 days
  Stability of Cannabinoids in AB Red: 1.63 µg/mL
[1]; 8° C., 29 days
  Stability of Cannabinoids in AB Red: 1.66 µg/mL
[1]; 8° C., 30 days
  Stability of Cannabinoids in AB Red: 1.70 µg/mL
[1]; 8° C., 60 days
  Stability of Cannabinoids in AB Red: 1.66 µg/mL
[1]; 8° C., 90 days
  Stability of Cannabinoids in AB Red: 1.68 µg/mL
[1]; 8° C., 120 days
  Stability of Cannabinoids in AB Red: 1.65 µg/mL
[1]; 8° C., 150 days
  Stability of Cannabinoids in AB Red: 1.66 µg/mL
[1]; 8° C., 180 days
  Stability of Cannabinoids in AB Red: 1.60 µg/mL
[1]; 8° C., 210 days
  Stability of Cannabinoids in AB Red: 1.65 µg/mL
[1]; 8° C., 240 days
  Stability of Cannabinoids in AB Red: 1.66 µg/mL
[1]; 8° C., 270 days
  Stability of Cannabinoids in AB Red: 1.63 µg/mL
[1]; 8° C., 300 days
  Stability of Cannabinoids in AB Red: 1.65 µg/mL
[1]; 8° C., 330 days
  Stability of Cannabinoids in AB Red: 1.60 µg/mL
[1]; 8° C., 390 days
  Stability of Cannabinoids in AB Red: 1.63 µg/mL
[1]; 8° C., 420 days
  Stability of Cannabinoids in AB Red: 1.63 µg/mL
[1]; 8° C., 450 days
  Stability of Cannabinoids in AB Red: 1.63 µg/mL
[1]; 8° C., 480 days
  Stability of Cannabinoids in AB Red: 1.60 µg/mL
[1]; 8° C., 510 days
  Stability of Cannabinoids in AB Red: 1.55 µg/mL
[1]; 8° C., 540 days
  Stability of Cannabinoids in AB Red: 1.55 µg/mL
[1]; 8° C., 570 days
  Stability of Cannabinoids in AB Red: 1.54 µg/mL
[1]; 21-25° C., 0 days
  Stability of Cannabinoids in AB Red: 1.68 µg/mL
[1]; 21-25° C., 1 days
  Stability of Cannabinoids in AB Red: 1.70 µg/mL
[1]; 21-25° C., 2 days
  Stability of Cannabinoids in AB Red: 1.65 µg/mL
[1]; 21-25° C., 3 days
  Stability of Cannabinoids in AB Red: 1.64 µg/mL
[1]; 21-25° C., 5 days
  Stability of Cannabinoids in AB Red: 1.69 µg/mL
[1]; 21-25° C., 8 days
  Stability of Cannabinoids in AB Red: 1.64 µg/mL
[1]; 21-25° C., 9 days
  Stability of Cannabinoids in AB Red: 1.63 µg/mL
[1]; 21-25° C., 10 days
  Stability of Cannabinoids in AB Red: 1.61 µg/mL
[1]; 21-25° C., 11 days
  Stability of Cannabinoids in AB Red: 1.64 µg/mL
[1]; 21-25° C., 12 days
  Stability of Cannabinoids in AB Red: 1.70 µg/mL
[1]; 21-25° C., 15 days
  Stability of Cannabinoids in AB Red: 1.64 µg/mL
[1]; 21-25° C., 16 days
  Stability of Cannabinoids in AB Red: 1.67 µg/mL
[1]; 21-25° C., 17 days
  Stability of Cannabinoids in AB Red: 1.63 µg/mL
[1]; 21-25° C., 18 days
  Stability of Cannabinoids in AB Red: 1.65 µg/mL
[1]; 21-25° C., 19 days
  Stability of Cannabinoids in AB Red: 1.70 µg/mL
[1]; 21-25° C., 22 days
  Stability of Cannabinoids in AB Red: 1.66 µg/mL
[1]; 21-25° C., 23 days
  Stability of Cannabinoids in AB Red: 1.63 µg/mL
[1]; 21-25° C., 24 days
  Stability of Cannabinoids in AB Red: 1.65 µg/mL
[1]; 21-25° C., 25 days
  Stability of Cannabinoids in AB Red: 1.64 µg/mL
[1]; 21-25° C., 26 days
  Stability of Cannabinoids in AB Red: 1.67 µg/mL
[1]; 21-25° C., 29 days
  Stability of Cannabinoids in AB Red: 1.62 µg/mL
[1]; 21-25° C., 30 days
  Stability of Cannabinoids in AB Red: 1.68 µg/mL
[1]; 21-25° C., 60 days
  Stability of Cannabinoids in AB Red: 1.59 µg/mL
[1]; 21-25° C., 90 days
  Stability of Cannabinoids in AB Red: 1.60 µg/mL
[1]; 21-25° C., 120 days
  Stability of Cannabinoids in AB Red: 1.64 µg/mL
[1]; 21-25° C., 150 days
  Stability of Cannabinoids in AB Red: 1.58 µg/mL
[1]; 21-25° C., 180 days
  Stability of Cannabinoids in AB Red: 1.64 µg/mL
[1]; 21-25° C., 210 days
  Stability of Cannabinoids in AB Red: 1.64 µg/mL
[1]; 21-25° C., 240 days
  Stability of Cannabinoids in AB Red: 1.60 µg/mL
[1]; 21-25° C., 270 days
  Stability of Cannabinoids in AB Red: 1.65 µg/mL
[1]; 21-25° C., 300 days
  Stability of Cannabinoids in AB Red: 1.58 µg/mL
[1]; 21-25° C., 330 days
  Stability of Cannabinoids in AB Red: 1.65 µg/mL
[1]; 21-25° C., 390 days
  Stability of Cannabinoids in AB Red: 1.61 µg/mL
[1]; 21-25° C., 420 days
  Stability of Cannabinoids in AB Red: 1.59 µg/mL
[1]; 21-25° C., 450 days
  Stability of Cannabinoids in AB Red: 1.57 µg/mL
[1]; 21-25° C., 480 days
  Stability of Cannabinoids in AB Red: 1.57 µg/mL
[1]; 21-25° C., 510 days
  Stability of Cannabinoids in AB Red: 1.56 µg/mL
[1]; 21-25° C., 540 days
  Stability of Cannabinoids in AB Red: 1.57 µg/mL
[1]; 21-25° C., 570 days
  Stability of Cannabinoids in AB Red: 1.54 µg/mL
[2]; day 0
  Stability in Powder Concentrate (content by LCMSMS): 0.410 mg/g powder
[2]; day 1
  Stability in Powder Concentrate (content by LCMSMS): 0.412 mg/g powder
[2]; day 2
  Stability in Powder Concentrate (content by LCMSMS): 0.407 mg/g powder
[2]; day 3
  Stability in Powder Concentrate (content by LCMSMS): 0.406 mg/g powder
[2]; day 5
  Stability in Powder Concentrate (content by LCMSMS): 0.414 mg/g powder
[2]; day 8
  Stability in Powder Concentrate (content by LCMSMS): 0.415 mg/g powder
[2]; day 9
  Stability in Powder Concentrate (content by LCMSMS): 0.410 mg/g powder
[2]; day 10
  Stability in Powder Concentrate (content by LCMSMS): 0.418 mg/g powder
[2]; day 11
  Stability in Powder Concentrate (content by LCMSMS): 0.415 mg/g powder
[2]; day 12
  Stability in Powder Concentrate (content by LCMSMS): 0.396 mg/g powder
[2]; day 15
  Stability in Powder Concentrate (content by LCMSMS): 0.399 mg/g powder
[2]; day 16
  Stability in Powder Concentrate (content by LCMSMS): 0.427 mg/g powder
[2]; day 17
  Stability in Powder Concentrate (content by LCMSMS): 0.421 mg/g powder
[2]; day 18
  Stability in Powder Concentrate (content by LCMSMS): 0.418 mg/g powder
[2]; day 19
  Stability in Powder Concentrate (content by LCMSMS): 0.414 mg/g powder
[2]; day 22
  Stability in Powder Concentrate (content by LCMSMS): 0.419 mg/g powder
[2]; day 23
  Stability in Powder Concentrate (content by LCMSMS): 0.396 mg/g powder
[2]; day 24
  Stability in Powder Concentrate (content by LCMSMS): 0.403 mg/g powder
[2]; day 25
  Stability in Powder Concentrate (content by LCMSMS): 0.401 mg/g powder
[2]; day 26
  Stability in Powder Concentrate (content by LCMSMS): 0.397 mg/g powder
[2]; day 29
  Stability in Powder Concentrate (content by LCMSMS): 0.426 mg/g powder
[2]; day 30
  Stability in Powder Concentrate (content by LCMSMS): 0.405 mg/g powder
[2]; day 60
  Stability in Powder Concentrate (content by LCMSMS): 0.418 mg/g powder
[2]; day 90
  Stability in Powder Concentrate (content by LCMSMS): 0.413 mg/g powder
[2]; day 120
  Stability in Powder Concentrate (content by LCMSMS): 0.403 mg/g powder
[2]; day 150
  Stability in Powder Concentrate (content by LCMSMS): 0.412 mg/g powder
[2]; day 180
  Stability in Powder Concentrate (content by LCMSMS): 0.422 mg/g powder
[2]; day 210
  Stability in Powder Concentrate (content by LCMSMS): 0.427 mg/g powder
[2]; day 240
  Stability in Powder Concentrate (content by LCMSMS): 0.417 mg/g powder
[2]; day 270
  Stability in Powder Concentrate (content by LCMSMS): 0.424 mg/g powder
[2]; day 300
  Stability in Powder Concentrate (content by LCMSMS): 0.409 mg/g powder
[2]; day 330
  Stability in Powder Concentrate (content by LCMSMS): 0.424 mg/g powder
[2]; day 360
  Stability in Powder Concentrate (content by LCMSMS): 0.413 mg/g powder
[2]; day 390
  Stability in Powder Concentrate (content by LCMSMS): 0.407 mg/g powder
[2]; day 420
  Stability in Powder Concentrate (content by LCMSMS): 0.420 mg/g powder
[2]; day 450
  Stability in Powder Concentrate (content by LCMSMS): 0.398 mg/g powder
[2]; day 480
  Stability in Powder Concentrate (content by LCMSMS): 0.418 mg/g powder
[2]; day 510
  Stability in Powder Concentrate (content by LCMSMS): 0.411 mg/g powder
[2]; day 540
  Stability in Powder Concentrate (content by LCMSMS): 0.425 mg/g powder
[2]; day 570
  Stability in Powder Concentrate (content by LCMSMS): 0.408 mg/g powder
